Drawing on patent US20250154172A1, “PRMT5 INHIBITORS AND USES THEREOF” (Gilead Sciences, Inc., priority 2023, published 2025), this text covers CC50 for eleven compounds.

In this assay the test system is HCT116 MTAP-deleted cell lines. In words: Cell viability assay for HCT116 isogenic pair (CellTitre-Glo, 7 days). The format is cell-based. As to conditions: Homo sapiens, HCT-116, 168 h, 7 days of treatment, cell line not given. As to the method: Control compounds were analyzed in parallel each time for quality control.
In Brief, on Day −1, a serial dilution of stock compounds in DMSO was performed using BioMek liquid handlers and dispensed using Echo acoustic dispenser into 384 well plates. Both tool compounds and sample compounds were spotted in the same plate for a dose response of PRMT5 inhibitors. Compound plates were stored as frozen until the cells were ready for seeding.
On Day 0, 100 HCT WT or HCT116 MTAP-deleted cells were seeded in compound-containing 384 well plates (50 μl per well) in RPMI 1640 media supplemented with 10% heat inactivated fetal bovine serum, Glutamax and penicillin streptomycin using EL460 liquid dispenser 5 μl cassette (BioTek, part no. 7170011). After equilibrating the plate in room temperature, the cells were incubated for 7 days inside the sealed incubator set at 37° C. with 90% humidity and 5% CO2.
On Day 7, the viability of cells was measured using a CTG assay kit (CellTitre-Glo; Promega cat no. G7573). Shortly, 40 μl per well of luminescent cell viability assay reagent were dispensed using EL460 liquid dispenser 5 μl cassette. CTG luminescence signal was measured using an EnVision plate reader (PerkinElmer) in accordance with manufacturer's instruction. The CCso values for each compound after 7 days of treatment were calculated using 4 parameter non-linear logistical curve fit.
For the cell viability assay ie CC50 shown in nM in Table 3.
`C[C@@H]1CN(C(=O)c2cc3c(cn2)nc(N)c2cnn(C)c23)[C@H]2c3ccc(Br)cc3C[C@H]2O1` [Example Ca-50, (4-amino-1-methyl-1H-pyrazolo[4,3-c][1,7]naphthyridin-8-yl)((2R,4aS,9aR)-7-bromo-2-methyl-2,3,9,9a-tetrahydroindeno[2,1-b][1,4]oxazin-4(4aH)-yl)methanone] showed a CC50 of 20 nM.

Turning to `Cn1ncc2c(N)nc3cnc(C(=O)N4CCO[C@@H]5Cc6cc(C(F)(F)F)cc(F)c6[C@@H]54)cc3c21` [Example Ca-51, (4-amino-1-methyl-1H-pyrazolo[4,3-c][1,7]naphthyridin-8-yl)((4aS,9aR)-5-fluoro-7-(trifluoromethyl)-2,3,9,9a-tetrahydroindeno[2,1-b][1,4]oxazin-4(4aH)-yl)methanone], the CC50 is 195 nM.

Regarding `Cn1ncc2c3cc(C(=O)N4CCC[C@@H]5Oc6cc(C(F)(F)F)cc(F)c6[C@@H]54)ncc3nc(N)c21` [Example Ca-52, (4-amino-3-methyl-3H-pyrazolo[3,4-c][1,7]naphthyridin-8-yl)((4aS,9bS)-9-fluoro-7-(trifluoromethyl)-3,4,4a,9b-tetrahydrobenzofuro[3,2-b]pyridin-1(2H)-yl)methanone], it took 48 nM to reach half-maximal cytotoxicity (CC50).

`Cn1ncc2c(N)nc3cnc(C(=O)N4CCO[C@@H]5Cc6cc(OC(F)(F)F)ccc6[C@@H]54)cc3c21` [Example Ca-53, (4-amino-1-methyl-1H-pyrazolo[4,3-c][1,7]naphthyridin-8-yl)((4aS,9aR)-7-(trifluoromethoxy)-2,3,9,9a-tetrahydroindeno[2,1-b][1,4]oxazin-4(4aH)-yl)methanone] had a CC50 of 33 nM.

`Cn1ncc2c(N)nc3cnc(C(=O)N4CCO[C@@H]5Cc6cc(C(F)(F)F)ccc6[C@@H]54)cc3c21` [Example Ca-54, (4-amino-1-methyl-1H-pyrazolo[4,3-c][1,7]naphthyridin-8-yl)((4aS,9aR)-7-(trifluoromethyl)-2,3,9,9a-tetrahydroindeno[2,1-b][1,4]oxazin-4(4aH)-yl)methanone] displayed a CC50 of 16 nM.

In turn, `Cn1ncc2c(N)nc3cc(F)c(C(=O)N4CCC[C@@H]5Oc6cc(-c7cnn(C(F)(F)F)c7)ccc6[C@@H]54)cc3c21` [Example Ca-56, (4-amino-7-fluoro-1-methyl-1H-pyrazolo[4,3-c]quinolin-8-yl)((4aS,9bS)-7-(1-(trifluoromethyl)-1H-pyrazol-4-yl)-3,4,4a,9b-tetrahydrobenzofuro[3,2-b]pyridin-1(2H)-yl)methanone] came in with a CC50 of 4 nM.

In turn, `Nc1nc2cnc(C(=O)N3C[C@@H](F)C[C@@H]4Oc5cc(C(F)(F)F)cc(F)c5[C@@H]43)cc2c2c1COC2` [Example Ca-57, (4-amino-1,3-dihydrofuro[3,4-c][1,7]naphthyridin-8-yl)((3S,4aS,9bS)-3,9-difluoro-7-(trifluoromethyl)-3,4,4a,9b-tetrahydrobenzofuro[3,2-b]pyridin-1(2H)-yl)methanone] gave a CC50 of 20 nM.

The compound `[2H]C1([2H])CC[C@@H]2Oc3cc(C(F)(F)F)cc(F)c3[C@@H]2N1C(=O)c1cc2c3c(c(N)nc2cn1)COC3` [Example Ca-58, (4-amino-1,3-dihydrofuro[3,4-c][1,7]naphthyridin-8-yl)((4aS,9bS)-9-fluoro-7-(trifluoromethyl)-3,4,4a,9b-tetrahydrobenzofuro[3,2-b]pyridin-1(2H)-yl-2,2-d2)methanone] displayed a CC50 of 9 nM.

Consider `Nc1nc2cnc(C(=O)N3CC[C@H]4C[C@@H]3c3c(F)cc(C(F)(F)F)cc3O4)cc2c2c1COC2` [Example Ca-59, (4-amino-1,3-dihydrofuro[3,4-c][1,7]naphthyridin-8-yl)((2S,6R)-7-fluoro-9-(trifluoromethyl)-3,4-dihydro-2H-2,6-methanobenzo[b][1,5]oxazocin-5(6H)-yl)methanone], for which the CC50 worked out at 17 nM.

In turn, `Nc1nc2cnc(C(=O)N3CC[C@H]4C[C@@H]3c3c(Cl)cc(C(F)(F)F)cc3O4)cc2c2c1COC2` [Example Ca-60, (4-amino-1,3-dihydrofuro[3,4-c][1,7]naphthyridin-8-yl)((2S,6R)-7-chloro-9-(trifluoromethyl)-3,4-dihydro-2H-2,6-methanobenzo[b][1,5]oxazocin-5(6H)-yl)methanone] displayed a CC50 of 227 nM.

The compound `C[C@H]1CN(C(=O)c2cc3c4c(c(N)nc3cn2)COC4)[C@H]2c3ccc(C(F)(F)F)cc3C[C@H]2O1` [Example Cb-1, (4-amino-1,3-dihydrofuro[3,4-c][1,7]naphthyridin-8-yl)((2S,4aS,9aR)-2-methyl-7-(trifluoromethyl)-2,3,9,9a-tetrahydroindeno[2,1-b][1,4]oxazin-4(4aH)-yl)methanone] registered a CC50 of 71 nM.

As a reminder, the CC50 is the concentration giving 50% cytotoxicity. Low readings indicate harm at low concentration, high ones better tolerance by the cells.
